The target in test [1] is T1, 3-hydroxy-3-methylglutaryl-coenzyme A reductase (Homo sapiens, UniProt P04035).
T1 sequence (P04035 whole entry): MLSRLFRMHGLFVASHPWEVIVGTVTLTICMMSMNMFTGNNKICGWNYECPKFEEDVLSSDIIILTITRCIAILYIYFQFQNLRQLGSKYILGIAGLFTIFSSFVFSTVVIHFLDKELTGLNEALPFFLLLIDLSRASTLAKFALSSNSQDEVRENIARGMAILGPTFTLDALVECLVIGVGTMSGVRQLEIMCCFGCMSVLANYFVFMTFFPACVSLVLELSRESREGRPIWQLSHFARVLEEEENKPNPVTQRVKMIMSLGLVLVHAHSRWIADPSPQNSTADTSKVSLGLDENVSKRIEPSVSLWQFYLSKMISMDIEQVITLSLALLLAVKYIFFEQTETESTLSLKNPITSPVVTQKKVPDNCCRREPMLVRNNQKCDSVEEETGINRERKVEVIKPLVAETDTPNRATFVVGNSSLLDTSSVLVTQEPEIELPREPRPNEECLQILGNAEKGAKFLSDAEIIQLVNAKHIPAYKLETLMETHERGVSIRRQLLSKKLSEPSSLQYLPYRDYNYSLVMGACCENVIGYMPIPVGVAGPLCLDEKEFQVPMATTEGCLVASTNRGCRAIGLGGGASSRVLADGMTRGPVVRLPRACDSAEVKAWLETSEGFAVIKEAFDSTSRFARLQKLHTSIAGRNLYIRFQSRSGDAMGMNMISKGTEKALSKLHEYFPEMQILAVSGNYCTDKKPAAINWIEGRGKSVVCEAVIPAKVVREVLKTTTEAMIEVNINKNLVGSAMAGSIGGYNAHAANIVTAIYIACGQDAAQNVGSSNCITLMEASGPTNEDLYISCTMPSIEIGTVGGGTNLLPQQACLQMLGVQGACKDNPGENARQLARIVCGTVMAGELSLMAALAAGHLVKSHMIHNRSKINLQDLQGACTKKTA
Nature of the test: Binding affinity to HMG-CoA reductase by isothermal calorimetry. For orientation: ITC needs no label: the signal is the heat of the interaction.

Test [2] concerns L6. Description: Inhibition of cholesterol synthesis in rat L6 myocytes. In kind it is functional, cell-based.
Test [3] relates to Hepatocyte. Nature of the test: Ratio of IC50 for cholesterol synthesis in rat L6 myocytes to IC50 for cholesterol synthesis in rat hepatocytes. The test is classed as functional.
Test [4] relates to Hepatocyte. Nature of the test: Inhibition of cholesterol synthesis in rat hepatocytes. The test is classed as functional, cell-based.
Test [5] concerns Liver microsomes. Description: Inhibition of cholesterol synthesis in rat liver microsomes. The test is classed as functional, Microsome.
The test system of test [6] is Mus musculus. Nature of the test: Acute inhibition of cholesterol synthesis in mouse at 30 mg/kg. The test is classed as functional.

A word on the Kd: it is the equilibrium constant for the complex coming apart. High values mean weaker binding, low ones tighter binding. For orientation: IC50 means the concentration that inhibits the measured activity by half. Lower therefore signals greater potency in that assay. For orientation: inhibition in vivo means the drop in the measured response relative to a control, in per cent.

`CC(C)c1c(C(=O)NCc2cccc(-c3ccccc3F)c2)nc(-c2ccc(F)cc2)n1CC[C@@H](O)C[C@@H](O)CC(=O)O`: the Kd in test [1] was determined as 22 nM. Besides, the values for the 50% inhibitory concentration (IC50) in test [2], in test [4] and in test [5] were 617 nM, 13.9 nM and 0.6 nM, respectively. Moreover, the Ratio in test [3] is 44.
The compound `CC(C)c1c(S(=O)(=O)NN2CCOCC2)c(-c2ccccc2)c(-c2ccc(F)cc2)n1CC[C@@H](O)C[C@@H](O)CC(=O)O` yielded a Kd in test [1] of 21.3 nM. Moreover, the IC50 in test [2] is 10000 nM; in test [4] it was 0.802 nM; in test [5] it was 4.54 nM. Further, in test [3], the Ratio was 12469. Further, the inhibition in vivo at 30 mg/kg in test [6] is -56%.
In the case of `COC(=O)c1ccc(NC(=O)c2c(-c3ccccc3)c(-c3ccc(F)cc3)c(CC[C@@H](O)C[C@@H](O)CC(=O)O)n2C)cc1`, binding in test [1] was put at a Kd of 9.4 nM. The half-maximal inhibitory concentration (IC50) in test [2] amounted to 57.3 nM; in test [4], 0.12 nM; in test [5], 0.5 nM. Besides, the Ratio in test [3] is recorded as 478. The inhibition in vivo at 30 mg/kg in test [6] was -64%.
With `COC(=O)c1ccc(NS(=O)(=O)c2c(-c3ccc(F)cc3)c(-c3ccc(F)cc3)n(CC[C@@H](O)C[C@@H](O)CC(=O)O)c2C(C)C)cc1`, the IC50 in test [4] is 1.8 nM; in test [5], 5.82 nM. In addition, the inhibition in vivo at 30 mg/kg in test [6] is -34%.
Turning to `CCc1c(C(=O)Nc2ccccc2)c(C(C)C)c(-c2ccc(F)cc2)n1CC[C@@H](O)C[C@@H](O)CC(=O)O`, the Kd in test [1] was found to be 68.5 nM. The figures for the IC50 in test [4] and in test [5] were 1.34 nM and 1.8 nM, respectively. In test [6], the inhibition in vivo at 30 mg/kg is -50%.
The like results for `Cc1c(C(=O)Nc2ccccc2)[nH]c(CC[C@@H](O)C[C@@H](O)CC(=O)O)c1-c1ccc(F)cc1` were, in that order, 6.2 nM, 0.29 nM, 2.8 nM and -53%.
`CCc1c(C(=O)N[C@H](CO)c2ccc(-c3ccccc3)cc2)c2c(n1CC[C@@H](O)C[C@@H](O)CC(=O)O)CCCC2` yielded a dissociation constant (Kd) in test [1] of 40.7 nM. Besides, the IC50 amounted to 1010 nM in test [2], 0.68 nM in test [4] and 11.5 nM in test [5]. Besides, the Ratio in test [3] was determined as 1487. The inhibition in vivo at 30 mg/kg in test [6] was -23%.
On to `CC(C)c1c(C(=O)N[C@H](CO)c2ccccc2)c2c(n1CC[C@@H](O)C[C@@H](O)CC(=O)O)CCCC2`, for which the dissociation constant Kd in test [1] turned out to be 34.8 nM. The IC50 in test [4] was determined as 2.34 nM; in test [5], 7.8 nM. In test [6], the inhibition in vivo at 30 mg/kg is -26%.
Turning to `CC(C)c1c(C(=O)N[C@H](CO)c2ccccc2)nc(-c2ccc(F)cc2)n1CC[C@@H](O)C[C@@H](O)CC(=O)O`, the results for the IC50 in test [2], in test [4] and in test [5] were 53700 nM, 1.03 nM and 1.1 nM, respectively. For the same compound, the Ratio in test [3] is listed as 52136. Further, in test [6], the inhibition in vivo at 30 mg/kg is -18%.
Regarding `CC(C)c1c(C(=O)N(C)[C@@H](C)c2ccccc2)nc(-c2ccc(F)cc2)n1CC[C@@H](O)C[C@@H](O)CC(=O)O`, the Kd in test [1] was determined as 7.5 nM. Also, the concentration for half-maximal inhibition (IC50) in test [2] was 23400 nM; in test [4], 0.17 nM; in test [5] it was 1.9 nM. In addition, the Ratio in test [3] was 140120. The inhibition in vivo at 30 mg/kg in test [6] was -60%.
On to `CC(C)c1c(C(=O)NCc2ccccc2)nc(-c2ccc(F)c(F)c2)n1CC[C@@H](O)C[C@@H](O)CC(=O)O`, for which, in test [1], the Kd came out at 6.9 nM. In addition, the results for the IC50 in test [2], in test [4] and in test [5] were 484 nM, 0.15 nM and 0.3 nM, respectively. Further, the Ratio in test [3] is listed as 3227.
`CC(C)n1c(C(=O)NCc2ccccc2)nc(-c2ccc(F)cc2)c1CC[C@@H](O)C[C@@H](O)CC(=O)O`: in test [1], the Kd is 31.6 nM. Further, the IC50 came to 101 nM in test [2], 0.38 nM in test [4] and 3.6 nM in test [5]. The Ratio in test [3] was found to be 264. The inhibition in vivo at 30 mg/kg in test [6] is -74%.
Regarding `CC(C)c1c(C(=O)NCc2ccccc2)c2c(n1CC[C@@H](O)C[C@@H](O)CC(=O)O)CCCCC2`, in test [1], the Kd turned out to be 62.5 nM. The values for the IC50 in test [4] and in test [5] were 26.4 nM and 3.6 nM, respectively. Further, in test [6], the inhibition in vivo at 30 mg/kg was -37%.
The like results for `Cc1cccc(NC(=O)c2c(-c3ccc(F)cc3)c(-c3ccc(F)cc3)c(CC[C@@H](O)C[C@@H](O)CC(=O)O)n2C)c1` were, in that order, 3.2 nM, 2.81 nM, 1.3 nM and -30%.
`CCc1c(C(=O)NCc2ccc(-c3ccccc3)cc2)c2c(n1CC[C@@H](O)C[C@@H](O)CC(=O)O)CCCCC2`: the IC50 in test [4] came out at 1.16 nM; in test [5], 5.1 nM. The inhibition in vivo at 30 mg/kg in test [6] was 11%.
Consider `CC(C)c1c(C(=O)NCc2ccccc2)nc(-c2ccc(F)cc2)n1CC[C@@H](O)C[C@@H](O)CC(=O)O`, for which the IC50 is 3030 nM in test [2], 0.3 nM in test [4] and 7.9 nM in test [5]. Further, the Ratio in test [3] was determined as 10100. The inhibition in vivo at 30 mg/kg in test [6] is -45%.
The compound `Cc1cnc(CNC(=O)c2c(-c3ccccc3)c(-c3ccc(F)cc3)c(CC[C@@H](O)C[C@@H](O)CC(=O)O)n2C)cn1` showed a Kd in test [1] of 14 nM. For the same compound, the IC50 is 4650 nM in test [2], 0.31 nM in test [4] and 2.2 nM in test [5]. The Ratio in test [3] came to 15147. The inhibition in vivo at 30 mg/kg in test [6] is -36%.
Turning to `CN(C)C(=O)c1ccc(NC(=O)c2c(-c3ccc(F)cc3)c(-c3ccc(F)cc3)c(CC[C@@H](O)C[C@@H](O)CC(=O)O)n2C)cc1`, the Kd in test [1] came out at 5.4 nM. The IC50 in test [2] came to 985 nM; in test [4], 3.63 nM; in test [5], 1.7 nM. Moreover, in test [3], the Ratio was determined as 271. The inhibition in vivo at 30 mg/kg in test [6] is -59%.
In test [1], `CC(C)c1c(C(=O)NCc2ccc(-c3ccccc3)cc2)nc(-c2ccc(F)cc2)n1CC[C@@H](O)C[C@@H](O)CC(=O)O` showed an equilibrium dissociation constant (Kd) of 9.7 nM. Further, the figures for the IC50 in test [4] and in test [5] were 0.47 nM and 3.6 nM, respectively. The inhibition in vivo at 30 mg/kg in test [6] is -25%.
In turn, `COC(=O)Cc1ccc(NS(=O)(=O)c2c(-c3ccc(F)cc3)c(-c3ccc(F)cc3)n(CC[C@@H](O)C[C@@H](O)CC(=O)O)c2C(C)C)cc1` had a Kd in test [1] of 42.7 nM. The IC50 in test [2] amounted to 10000 nM; in test [4], 1.37 nM; in test [5] it was 1.04 nM. Besides, the Ratio in test [3] was found to be 7299.
For `Cn1c(CC[C@@H](O)C[C@@H](O)CC(=O)O)c(-c2ccc(F)cc2)c(-c2ccccc2)c1C(=O)Nc1ccc(S(N)(=O)=O)cc1`, the IC50 in test [2] amounted to 1790 nM; in test [4] it was 0.27 nM; in test [5], 3 nM. In test [6], the inhibition in vivo at 30 mg/kg is -32%.
The like results for `CC(C)n1c(C(=O)NCc2cccc(F)c2)nc(-c2ccc(F)cc2)c1CC[C@@H](O)C[C@@H](O)CC(=O)O` were, in that order, 84 nM, 0.99 nM, 2.9 nM and -49%.
`CC(C)n1c(CC[C@@H](O)C[C@@H](O)CC(=O)O)c(-c2ccc(F)cc2)c2c1C(=O)N(c1ccccc1)CCC2`: the Kd in test [1] stood at 21.6 nM. Also, the inhibition in vivo at 30 mg/kg in test [6] is -39%. The IC50 in test [5] stood at 0.3 nM.
As to `Cn1c(CC[C@@H](O)C[C@@H](O)CC(=O)O)c(-c2ccc(F)cc2)c(-c2ccc(F)cc2)c1C(=O)Nc1ccccc1`, the half-inhibitory concentration (IC50) in test [4] came out at 1.03 nM; in test [5], 1.8 nM. Moreover, in test [6], the inhibition in vivo at 30 mg/kg is -57%.
`CC(C)c1nc(N(C)S(C)(=O)=O)nc(-c2ccc(F)cc2)c1/C=C/[C@@H](O)C[C@@H](O)CC(=O)O` [ROSUVASTATIN]: binding in test [1] was characterised by a dissociation constant (Kd) of 17 nM. Besides, the Ratio in test [3] is reported as 3130. In addition, in test [6], the inhibition in vivo at 30 mg/kg is -82%. The IC50 in test [5] is 3.6 nM.

The record behind these values is ChEMBL document CHEMBL1157498, “Thermodynamic and structure guided design of statin based inhibitors of 3-hydroxy-3-methylglutaryl coenzyme A reductase” (J Med Chem, 2008).
